Reference: US20100137327A1, “NOVEL SEM[…] CARBONYLHYDRAZIDE DERIVATIVES USEFUL AS POTASSIUM CHANNEL MODULATORS” (NeuroSearch A/S, priority 2007, published 2010)

Biological target: BK channels heterologously expressed in Xenopus laevis oocytes (Homo sapiens, UniProt Q12791)
Details: 30 μM compound added after stable current level, step from −40 mV (5 s) to +30 mV (1 s), repeated, FIG. 1
Experimental: The electrical current through the BK channel is measured conventional two-electrode voltage clamp. BK current is activated by repeated step protocols. In brief, this protocol goes from a resting membrane potential of −40 mV lasting for 5 s to a depolarised step to +30 mV lasting for 1 s. The protocol was repeated continuously.
Having reached a stable current level, Compound A (30 μM), was added.

Sequence of BK channels heterologously expressed in Xenopus laevis oocytes (Q12791 whole entry): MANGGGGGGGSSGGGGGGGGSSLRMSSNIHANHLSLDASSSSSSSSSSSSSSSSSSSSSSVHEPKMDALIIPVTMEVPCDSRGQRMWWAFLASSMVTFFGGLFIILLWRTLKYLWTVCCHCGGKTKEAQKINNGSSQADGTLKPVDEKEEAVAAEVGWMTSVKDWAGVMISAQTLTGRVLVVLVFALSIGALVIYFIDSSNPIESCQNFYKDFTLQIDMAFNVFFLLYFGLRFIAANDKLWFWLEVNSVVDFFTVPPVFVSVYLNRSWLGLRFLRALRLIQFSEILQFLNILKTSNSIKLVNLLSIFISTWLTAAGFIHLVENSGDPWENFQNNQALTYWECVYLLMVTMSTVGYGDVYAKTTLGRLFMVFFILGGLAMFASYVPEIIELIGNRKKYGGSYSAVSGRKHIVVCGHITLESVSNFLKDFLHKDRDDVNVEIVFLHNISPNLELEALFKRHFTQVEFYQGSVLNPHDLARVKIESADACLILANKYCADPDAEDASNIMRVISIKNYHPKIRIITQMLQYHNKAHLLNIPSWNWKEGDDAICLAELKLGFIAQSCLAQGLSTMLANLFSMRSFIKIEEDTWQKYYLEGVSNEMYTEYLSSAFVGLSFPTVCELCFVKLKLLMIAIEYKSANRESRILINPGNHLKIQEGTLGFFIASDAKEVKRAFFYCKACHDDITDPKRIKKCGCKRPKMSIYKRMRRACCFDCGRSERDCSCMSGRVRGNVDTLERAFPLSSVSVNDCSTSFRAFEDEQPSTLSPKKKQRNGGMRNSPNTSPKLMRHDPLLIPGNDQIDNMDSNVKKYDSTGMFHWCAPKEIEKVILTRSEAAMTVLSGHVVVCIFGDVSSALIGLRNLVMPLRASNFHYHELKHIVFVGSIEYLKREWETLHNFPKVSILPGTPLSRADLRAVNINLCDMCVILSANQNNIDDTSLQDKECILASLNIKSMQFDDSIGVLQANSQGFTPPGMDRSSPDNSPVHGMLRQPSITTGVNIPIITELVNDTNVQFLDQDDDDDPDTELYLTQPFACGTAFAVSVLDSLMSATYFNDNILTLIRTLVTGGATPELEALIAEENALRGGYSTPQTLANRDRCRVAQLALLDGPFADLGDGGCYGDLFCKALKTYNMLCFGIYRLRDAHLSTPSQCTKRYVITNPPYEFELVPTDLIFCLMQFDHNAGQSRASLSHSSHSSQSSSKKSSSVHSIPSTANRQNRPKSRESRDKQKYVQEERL

## O=C(NNc1ccc(-c2ccc(C(F)(F)F)cc2)cc1-c1nnn[nH]1)c1cc(C(F)(F)F)cc(C(F)(F)F)c1 [Compound A, 3,5-Bis-trifluoromethyl-benzoic acid N40-[3-(1H-tetrazol-5-yl)-4′-trifluoromethyl-biphenyl-4-yl]-hydrazide]
  current activated by depolarisation (BK channel opening activity): marked increase
